Results as given in patent US20090211893A1, “Photo-Activatable Amino Acids” (priority 2005, published 2009).

Columns and labels:
[1] = test system: COS7 cells; experiment: Protein biosynthesis by incorporation of [3H]Phe; type: cell-based, monkey; details: for Protein synthesis: LM-2 medium supplement, value in full DMEM medium set to 100, average ± SD of triplicate; for effect on protein biosynthesis: addition to LM-2 medium
Text: (§1) Unnatural amino acids frequently are toxic to cells. To find out if this is the case for photo-amino acids of the invention, we monitored in COS7 cells protein biosynthesis by incorporation of [^3H]Phe and viability by trypan blue exclusion of cells grown in the presence or absence of the photo-amino acids photo-Leu, photo-Met and photo-Ile. Due to the lack of two essential amino acids in the growth medium, protein biosynthesis is reduced to about 65% of that in a full growth medium. […] Although cells grew slightly slower than in full growth medium, viability (Table 2) and cell morphology (not shown) were unaffected.

[2] = test system: COS7 cells; experiment: Cell viability by trypan blue exclusion; type: cell-based, monkey; details: LM-2 medium supplement; percent ± SD of viable cells (n = 6)
Text: as §1

[3] = test system: E. coli beta-galactosidase; experiment: Activity of beta-galactosidase expressed in cells grown with photo-amino acids; type: cell-based, monkey; details: COS 7 cells, 20 h in LM-2 with photo-amino acid; percent ± SD (n = 6) of value in DMEM + FCS
Text: We furthermore tested, whether proteins produced by cells grown with photo-amino acids are functional or not. For that, we transfected cells with GFP-fusion constructs of the small GTPase Rab5 and of mutated Rab5 that is constitutively activated (GFP-Rab5QL) or dominant negative (GFP-Rab5SN)^19 and monitored the GFP fluorescence by confocal microscopy. Four hours after transfection, when cells were switched to media containing photo-amino acids, no GFP signal was detectable (see FIG. 7). […] Both, staining intensity and localization were unaffected by the presence of either of the photo-amino acids. Taking into account a frequency of substitution of photo-Met for Met of 35% (see below) and the amounts of Met in Rab5 and GFP, more than 80% of the fusion protein will have photo-Met in both the Rab5- and the GFP-part of the fusion, more than 99% in at least one of the two parts. […] To corroborate this with a quantitative assay, we measured the activity of beta-galactosidase that was expressed in the absence or presence of photo-amino acids (see Table 4). Activity in LM-2 labeling medium was 79% of that in full DMEM. The addition of either of the three photo-amino acids or of a mixture of photo-Met and photo-Leu had no significant additional effect. E. coli beta-galactosidase contains 23 methionines of which on average 8 would be replaced by photo-Met; less than 0.01% of the protein are expected to have no substitution by photo-Met. We conclude that photo-amino acids are non-toxic to cultivated mammalian cells and can, at least partially, functionally replace branched chain amino acids and methionine.

[4] = test system: caveolin-1; experiment: Photo-crosslinking of transfected caveolin-1 in COS7 cells; type: cell-based, human; details: irradiated samples, COS7 cells in LM-4
Method: FIG. 3: Photo-crosslinking induced by photo-amino acids. COS7 cells (panels a,b) or HeLa cells (panel c) were grown in LM-4 (panel a) or LM-2 (panels b,c) in the absence or presence of L-photo-Leu (pL), L-photo-Met (pM) or DL-photo-Ile (pl) or mixtures of them (pLM or PLMI) followed by UV irradiation (+) or no irradiation (−). cross-linked products formed after UV-irradiation were detected by SDS-PAGE followed by western blotting using (a) anti-caveolin 1 to detect overexpressed caveolin 1, (b) anti-stomatin to detect endogenous stomatin or (c) anti-EEA1 to detect endogenous EEA1. In panel b, lanes 8 and 9 show cross-linking with two different concentrations of the chemical cross-linker DSS for comparison of cross-linking efficiency. In panel c, photocrosslinking of endogenous EEA1 by photo-Leu and photo-Met is compared to chemical cross-linking using DSS or para-formaldehyde (PFA) as indicated. Note that chemical cross-linking leads to protein aggregates that are not resolvable by SDS-PAGE while photocrosslinking identifies more than six discrete cross-linked bands.
COS7 (monkey kidney) cells were grown in DMEM high glucose (Gibco no. 11995; with L-glutamine and Na-pyruvate)+10% FCS. Typically, 3 cm2 of cells are needed for a cross-linking experiment with detection by western blotting. At about 70%, medium was replaced by LM-4 (DMEM lacking Met, Leu, Ile and Val and phenol red, supplemented with 5% dialyzed FCS) or by LM-2 (LM-4+1 mM of each Ile and Val). Photo-amino acids were added to a final concentration of 4 mM photo-Leu and photo-Ile, 1.7 mM photo-Met and cells were cultivated for further 22 h followed by washing with PBS and UV-irradiation using a 200 W high pressure mercury lamp (Oriel Photomax) with a glass filter to remove wavelengths shorter 310 nm. The samples were placed at a distance of 38 cm to the light source, corresponding to a illuminated area of 105 mm diameter. […] We used an irradiation time 1-3 min for experiments with living cells. […] Lysis of cells, SDS-PAGE and western blotting were done as described^33. […]

[5] = test system: COS7 cells; experiment: Cell viability after UV irradiation by trypan blue exclusion; type: cell-based, monkey
Method: COS7 (monkey kidney) cells were grown in DMEM high glucose (Gibco no. 11995; with L-glutamine and Na-pyruvate)+10% FCS. Typically, 3 cm2 of cells are needed for a cross-linking experiment with detection by western blotting. At about 70%, medium was replaced by LM-4 (DMEM lacking Met, Leu, Ile and Val and phenol red, supplemented with 5% dialyzed FCS) or by LM-2 (LM-4+1 mM of each Ile and Val). Photo-amino acids were added to a final concentration of 4 mM photo-Leu and photo-Ile, 1.7 mM photo-Met and cells were cultivated for further 22 h followed by washing with PBS and UV-irradiation using a 200 W high pressure mercury lamp (Oriel Photomax) with a glass filter to remove wavelengths shorter 310 nm. The samples were placed at a distance of 38 cm to the light source, corresponding to a illuminated area of 105 mm diameter. […] We used an irradiation time 1-3 min for experiments with living cells. […] Lysis of cells, SDS-PAGE and western blotting were done as described^33. For immunoprecipitation, cells were lysed in 20 mM Hepes/NaOH pH 7.4, 100 mM NaCl, 5 mM EDTA, 1% Triton X 100, 0.5% sodium deoxycholate, the lysate was cleared with protein-A beads and incubated with beads that were preincubated with polyclonal anti-myc or anti-HA antibody. Beads were collected and washed three times each with 20 mM Hepes/NaOH pH 7.25, 0.5% CHAPS and with 100 mM Tris-HCl pH 8.3, 150 mM NaCl, 2 mM EDTA, 0.1% w/v SDS, 0.5% w/v Nonidet P40, 0.5% w/v sodiumdeoxycholate. Proteins were eluted from beads by heating with reducing SDS-PAGE sample buffer.
as §1

[6] = test system: HA-tagged human PGRMC1; experiment: Competition of PGRMC1 cross-linking by natural amino acids; type: cell-based; details: 3 mM competing amino acid, COS7 cells in LM-4
Method: FIG. 4: Specificity of incorporation and cross-linking by photo-Met and photo-Leu. COS7 cells were transfected with HA-tagged human PGRMC1 and were grown in LM-4 in the absence or presence of photo-Leu (A) or photo-Met (B) with addition of 3 mM of the indicated competing amino acid. cross-linked products formed after UV-irradiation were detected by SDS-PAGE followed by western blotting against the HA-epitope. (C) COS7 cells were grown in the presence of 1.7 mM [1-^14C]photo-Met, a constant trace amount of [^3H]Phe and 3 mM of competing unlabeled amino acids as indicated in the legend. Protein was precipitated and protein-bound radioactivity was determined by scintillation counting. […] The control value obtained in the absence of competing amino acid (con) is set to 100. Data are average±SD of triplicate determinations.
If so, addition of the complementary naturally occurring amino acid should strongly reduce incorporation and inhibit photo-crosslinking. […] To find out if competition for cross-linking reflects competition for incorporation, we competed incorporation of [1-^14C]photo-Met with the same set of amino acids (FIG. 4c). […] It should be noted that Met, Val, Leu and Ile all are transported into cells by the L-type transport system^25, which presumably also transports the three photo-amino acids. The strong difference in competition by Met and Leu versus Val and Ile excludes competition at the level of uptake.

[7] = test system: COS7 cells; experiment: Cell viability after UV irradiation by trypan blue exclusion; type: cell-based, monkey; remark: listed apart in the source

SMILES: CC(C(N)C(=O)O)C1(C)N=N1 (stereo not drawn) [photo-Ile, 2R,S-Amino-3-R,S-methyl-4,4′-azi-pentanoic acid]
- Protein synthesis [1]: 62.8 ± 2.8
- effect on protein biosynthesis [1]: no significant effect
- Cell viability [2]: 99.6 ± 0.3%
- beta-galactosidase activity [3]: 93 ± 9%
- formation of covalent caveolin dimers upon UV irradiation [4]: very little cross-linking

SMILES: CC1(CC(N)C(=O)O)N=N1 [photo-Leu, L-2-amino-4,4′-azi-pentanoic acid]
- Protein synthesis [1]: 61.5 ± 1.7
- effect on protein biosynthesis [1]: no significant effect
- Cell viability [2]: 99.8 ± 0.2%
- Cell viability ([5]; 1 min UV): 99.5 ± 0.2%
- Cell viability ([5]; 1 min UV + 1 h chase): 95.5 ± 3.0%
- Cell viability ([5]; 3 min UV): 99.6 ± 0.2%
- Cell viability ([5]; 3 min UV + 1 h chase): 95.3 ± 1.8%
- Cell viability ([5]; no UV + 1 h chase at 37 degree Celsius in PBS): 99.3 ± 0.5%
- Cell viability ([5]; no UV, percent ± SD of viable cells): 99.5 ± 0.3%
- beta-galactosidase activity [3]: 68 ± 9%
- formation of covalent caveolin dimers upon UV irradiation [4]: significant formation of a cross-linked dimer
- competition of cross-linking by Met, Val, Leu and Ile [6]: competed mainly by Leu
- Cell viability ([7]; 10 min UV): 99.5 ± 0.3%
- Cell viability ([7]; 10 min UV + 1 h chase): 91.5 ± 4.0%
- Cell viability ([7]; 30 min UV): 98.8 ± 0.4%
- Cell viability ([7]; 30 min UV + 1 h chase): 17.9 ± 3.2%
